Assay results taken from patent US20100056595A1, “Pyrazole Derivatives as P2X7 Modulators” (Glaxo Group Limited, priority 2007, published 2010).

molecular target: T1, human P2X7 receptor (Homo sapiens, UniProt Q99572); experiment: Ethidium Accumulation Assay; type: cell-based; conditions: HEK293 cells expressing human recombinant P2X7 receptors; blocking ATP (1 mM) responses; read-out: pIC50 for human P2X7 receptor antagonist activity in the Ethidium Accumulation Assay (converted)
T1 construct: expressed in transfected cells; host or cells: HEK293
T1 sequence (Q99572 1-595): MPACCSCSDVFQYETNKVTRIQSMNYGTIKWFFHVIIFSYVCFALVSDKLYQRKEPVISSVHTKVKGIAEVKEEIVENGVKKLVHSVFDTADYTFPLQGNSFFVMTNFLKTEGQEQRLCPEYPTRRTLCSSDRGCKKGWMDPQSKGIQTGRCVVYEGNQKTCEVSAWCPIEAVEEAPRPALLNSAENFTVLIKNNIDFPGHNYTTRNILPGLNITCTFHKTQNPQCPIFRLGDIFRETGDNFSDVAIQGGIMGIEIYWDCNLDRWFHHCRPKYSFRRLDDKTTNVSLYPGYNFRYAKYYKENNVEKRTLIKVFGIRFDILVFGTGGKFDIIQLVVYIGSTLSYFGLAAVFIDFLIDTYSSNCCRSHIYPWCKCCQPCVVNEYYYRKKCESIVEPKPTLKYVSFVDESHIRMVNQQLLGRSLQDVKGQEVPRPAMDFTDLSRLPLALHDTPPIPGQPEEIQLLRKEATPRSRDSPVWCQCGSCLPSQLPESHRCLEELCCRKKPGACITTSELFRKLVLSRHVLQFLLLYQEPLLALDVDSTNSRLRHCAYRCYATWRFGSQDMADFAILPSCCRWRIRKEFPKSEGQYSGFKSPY
Method: Ethidium Accumulation Assay
Studies were performed using NaCl assay buffer of the following composition (in mM): 140 mM NaCl, HEPES 10, N-methyl-D-glucamine 5, KCl 5.6, D-glucose 10, CaCl2 0.5 (pH 7.4). HEK293 cells, expressing human recombinant P2X7 receptors, were grown in poly-L-lysine pretreated 96 well plates for 18-24 h. […] The cells were washed twice with 350 μl of assay buffer before addition of 50 μl of antagonist. The cells were then incubated at room temperature (19-21° C.) for 30 min before addition of ATP and ethidium (100 μM final assay concentration). The ATP concentration was chosen to be close to the EC80 for the receptor type and was 1 mM for studies on the human P2X7 receptor. Incubations were continued for 8 or 16 min and were terminated by addition of 25 μl of 1.3M sucrose containing 5 mM of the P2X7 receptor antagonist reactive black 5 (Aldrich). Cellular accumulation of ethidium was determined by measuring fluorescence (excitation wavelength of 530nm and emission wavelength of 620 nm) from below the plate with a Canberra Packard Fluorocount (Pangbourne, UK). Antagonist pIC50 values for blocking ATP responses were determined using iterative curve fitting techniques.

Structure (SMILES)	IC50 [µM]
Cc1cnn(CC(F)(F)F)c1CC(=O)NCc1ccc(F)c(F)c1Cl [Example 3, N-[(2-chloro-3,4-difluorophenyl)methyl]-2-[4-methyl-1-(2,2,2-trifluoroethyl)-1H-pyrazol-5-yl]acetamide]	≤ 0.1
Cc1cnn(C)c1CC(=O)NCc1ccc(F)c(F)c1Cl [Example 4, N-[(2-chloro-3,4-difluorophenyl)methyl]-2-(1,4-dimethyl-1H-pyrazol-5-yl)acetamide]	≤ 0.1
Cc1cnn(C)c1CC(=O)NCc1ccc(Cl)cc1Cl [Example 10]	≤ 0.1
Cn1ncc(F)c1CC(=O)NCc1ccc(F)c(F)c1Cl [Example 18, N-[(2-Chloro-3,4-difluorophenyl)methyl]-2-(4-fluoro-1-methyl-1H-pyrazol-5-yl)acetamide]	≤ 0.1
Cn1ncc(F)c1CC(=O)NCc1ccc(Cl)cc1Cl [Example 19, N-[(2,4-Dichlorophenyl)methyl]-2-(4-fluoro-1-methyl-1H-pyrazol-5-yl)acetamide]	≤ 0.1
Cn1ncc(I)c1CC(=O)NCc1ccc(Cl)cc1Cl [Example 20, N-[(2,4-Dichlorophenyl)methyl]-2-(4-iodo-1-methyl-1H-pyrazol-5-yl)acetamide]	≤ 0.1

Next, values leading:

IC50 [µM]	Structure (SMILES)
≤ 0.1	Cc1cnn(C)c1CC(=O)NCc1cccc(C(F)(F)F)c1Cl [Example 2, N-{[2-chloro-3-(trifluoromethyl)phenyl]methyl}-2-(1,4-dimethyl-1H-pyrazol-5-yl)acetamide]
≤ 0.1	Cn1nccc1CC(=O)NCc1cccc(C(F)(F)F)c1Cl [Example 5, N-{[2-chloro-3-(trifluoromethyl)phenyl]methyl}-2-(1-methyl-1H-pyrazol-5-yl)acetamide]
≤ 0.1	Cn1ncc(Cl)c1CC(=O)NCc1cccc(C(F)(F)F)c1Cl [Example 6, 2-(4-chloro-1-methyl-1H-pyrazol-5-yl)-N-{[2-chloro-3-(trifluoromethyl)phenyl]methyl}acetamide]
≤ 0.1	Cn1ncc(Br)c1CC(=O)NCc1cccc(C(F)(F)F)c1Cl [Example 7, 2-(4-Bromo-1-methyl-1H-pyrazol-5-yl)-N-{[2-chloro-3-(trifluoromethyl)phenyl]methyl}acetamide]
≤ 0.1	Cn1ncc(F)c1CC(=O)NCc1cccc(C(F)(F)F)c1Cl [Example 8, N-{[2-chloro-3-(trifluoromethyl)phenyl]methyl}-2-(4-fluoro-1-methyl-1H-pyrazol-5-yl)acetamide]
≤ 0.1	Cn1ncc(Cl)c1CC(=O)NCc1ccc(F)cc1Cl [Example 14, N-[(2-Chloro-4-fluorophenyl)methyl]-2-(4-chloro-1-methyl-1H-pyrazol-5-yl)acetamide]
≤ 0.1	Cn1ncc(Cl)c1CC(=O)NCc1ccc(F)c(F)c1Cl [Example 15, N-[(2-Chloro-3,4-difluorophenyl)methyl]-2-(4-chloro-1-methyl-1H-pyrazol-5-yl)acetamide]
≤ 0.1	Cn1ncc(Cl)c1CC(=O)NCc1ccc(Cl)cc1Cl [Example 16, 2-(4-Chloro-1-methyl-1H-pyrazol-5-yl)-N-[(2,4-dichlorophenyl)methyl]acetamide]
